Assay type in all cases: biochemical
The target in one assay is T1, ADAM protein (Homo sapiens, UniProt Q9UKQ2).
T1 construct: made in house; host or cells: Escherichia coli BL21 (DE3)
T1 sequence (Q9UKQ2 199-495): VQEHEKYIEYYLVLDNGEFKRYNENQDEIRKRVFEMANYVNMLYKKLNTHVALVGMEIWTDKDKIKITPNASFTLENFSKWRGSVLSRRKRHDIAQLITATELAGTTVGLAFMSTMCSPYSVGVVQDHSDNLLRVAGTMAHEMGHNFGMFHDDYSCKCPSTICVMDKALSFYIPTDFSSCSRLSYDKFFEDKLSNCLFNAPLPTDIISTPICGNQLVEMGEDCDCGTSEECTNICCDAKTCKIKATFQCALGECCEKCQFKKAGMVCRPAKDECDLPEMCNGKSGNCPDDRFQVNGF
Kind of assay: Inhibition of the protease activity of the ADAM protein by test compounds. Conditions: Nma-Pro-Lys-Pro-Leu-Ala-Nva-Trp-Lys(DNP)-NH2 substrate, 37° C., 2 hours; read-out: IC50 value (concentration of a test compound which 50% inhibits the protease activity). The procedure: (§1) An enzymatic reaction was initiated by adding 75 μl of a buffer (83.3 mM Tris-HCl, pH 7.5, 16.7 mM NaCl, 1.67 mM CaCl2, 16.7 μM CoCl2, and 0.067% BSA) to a solution (25 μl) of the ADAM protein obtained according to the same manner as that of Example 3, and adding 25 μl of a solution of a substrate (50 μM Nma-Pro-Lys-Pro-Leu-Ala-Nva-Trp-Lys(DNP)-NH2, 0.05% BSA, and 5% DMSO). After a temperature was held at 37° C. for 2 hours, 100 μl of a 0.5M acetate buffer (pH 3.0) was added to stop the enzymatic reaction. The fluorescent intensity in the case of addition of no an enzyme solution [fluorescent intensity was measured at an excitation wavelength of 340 nm and a measuring wavelength of 450 nm using a fluorescent platereader (Corona MTP-32)] was 10, while the fluorescent intensity in the case of addition of the enzyme solution was 180.
10 μl of a test compound adjusted to the predetermined concentration (dissolved in 50% DMSO) was added to the above activity measuring system. […] From this, it was considered that search on a substance which regulates (inhibits or promotes) the protease activity of the present ADAM protein can be conducted using the present assay system.

For assay [1], the target named is T2, Nma-Pro-Lys-Pro-Leu-Ala-Nva-Trp-Lys(DNP)-NH2 (Homo sapiens, UniProt Q9UKQ2).
T2 construct: made in house; host or cells: Escherichia coli BL21 (DE3)
T2 sequence (Q9UKQ2 199-495): T1 sequence (Q9UKQ2 199-495)
Kind of assay: Protease activity of ADAM protein with Nma peptide substrate. The settings on record: 37° C. for 2 hours; excitation 340 nm, measuring 450 nm; intensity 10 without enzyme solution. The procedure: as §1

Assay [2] deals with T3, MOCAc-Arg-Pro-Lys-Pro-Tyr-Ala-Nva-Trp-Met-Lys(DNP)-NH2 (Homo sapiens, UniProt Q9UKQ2).
T3 construct: made in house; host or cells: Escherichia coli BL21 (DE3)
T3 sequence (Q9UKQ2 199-495): T1 sequence (Q9UKQ2 199-495)
Kind of assay: Detection of the protease activity of recombinant ADAM protein (fluorogenic MOCAc peptide substrate). Conditions: 37° C. for 22 hour; excitation 328 nm, 393 nm; 10 μM substrate; intensity 2 when no protein added. The procedure: 30 μL of a buffer [250 mM Tris-hydrochloric acid (pH7.5), 5 mM calcium chloride, and 10 μM zinc chloride] and 20 μL of the recombinant ADAM protein (0.8 mg/mL) obtained in Example 3 were added to a 96-well plate (Fluoro B plate, manufactured by Dainihonseiyaku). After preincuvation at 37° C. for 10 minutes, an enzymatic reaction was initiated by adding 100 μL of a 10 μM substrate [MOCAc-Arg-Pro-Lys-Pro-Tyr-Ala-Nva-Trp -Met-Lys(DNP)-NH2, manufactured by Peptide Laboratory]. After the reaction at 37° C. for 22 hour, the fluorescent intensity in the reaction solution was measured at an excitation wave length of 328 nm and […] wave length of 393 nm using a microplatereader (manufactured by Applied Biosystems). The fluorescent intensity was 2 when no recombinant ADAM protein was added, while the fluorescent intensity of 70 was shown when the protein was added. From these, it was made clear that the present ADAM protein had the protease activity. It is considered that search of a substance which regulates (inhibits and promotes) the protease activity of the present ADAM protein is possible using this assay.

Data on three molecules can be found in patent US7144720B2, “Protein and DNA thereof” (Takeda Chemical Industries, Ltd., priority 1998, dated 2006).

Peptide text beside a SMILES is read from it. * marks the point of attachment. Cbz = O=C(OCc1ccccc1)*; NHOH = ON*

As for `CC(C)C[C@H](NC(=O)[C@@H]1CCCN1C(=O)OCc1ccccc1)C(=O)NCC(=O)NO` [N-CBZ-Pro-Leu-Gly-hydroxamate] (Cbz-Pro-Leu-Gly-{NHOH}), at ADAM protein, the IC50 was about 100 µM.

With `CCCCC[C@H](CC(=O)NO)C(=O)N[C@H](C(=O)N1CCC[C@H]1CO)C(C)C` [actinonin], the IC50 on ADAM protein was determined as 600 µM.

B1: recombinant ADAM protein: about 35 kDa His-tagged metalloprotease and disintegrin region of the novel human ADAM protein, expressed in Escherichia coli from pMDH (protein)
chain: T1 sequence (Q9UKQ2 199-495)
modifications: left off: small tags and cut ends
notes: about 35 kDa His-tagged metalloprotease and disintegrin region of the novel human ADAM protein, expressed in Escherichia coli from pMDH
For the molecule B1, the fluorescent intensity was 180 in assay [1] and 70 in assay [2].
